# Laboratory results: ChEMBL document CHEMBL4483862, “Open-source discovery of chemical leads for next-generation chemoprotective antimalarials” (2018)
# Tested on: Plasmodium berghei
# Assay: Luciferase/luciferin-expressing antifolate-resistant parasites were used to infect a culture of HepG2 cells that were pre-incubated with compounds. Infected hepatocytes emit light due to the luciferase reaction. Assay results are presented as the percent inhibition of light emission compared to control. […]
# Assay type: functional
# Details: sporozoite; for IC90: read-out: LUCIFERASE INFECTION ASSAY - IC90
SMILES,IC90 [µM],also measured
Cc1nn(-c2ccc(F)cc2)c(Cl)c1/C=C1\C(=O)Nc2ccccc21,4.68,"IC50 (HEPG2TOX_HILL_SLOPE 2.09, HEPG2TOX_R_SQUARED 0.992, PBLUC_HILL_SLOPE 1.31, PBLUC_R_SQUARED 0.551, read-out: LUCIFERASE INFECTION ASSAY - IC50): 0.878 µM"
CCCOc1ccc(C(=O)CCC(=O)NNC(=O)c2ccncc2)cc1,5.4,"IC50 (HEPG2TOX_HILL_SLOPE 2.12, HEPG2TOX_R_SQUARED 0.868, PBLUC_HILL_SLOPE 86, PBLUC_R_SQUARED 0.219, read-out: LUCIFERASE INFECTION ASSAY - IC50): 5.26 µM"
COc1cc(-c2ccc3ncc(-c4cccc(CO)c4)n3n2)cc(OC)c1OC,2.51,"IC50 (HEPG2TOX_HILL_SLOPE 2.11, HEPG2TOX_R_SQUARED 0.989, PBLUC_HILL_SLOPE 5.29, PBLUC_R_SQUARED 0.606, read-out: LUCIFERASE INFECTION ASSAY - IC50): 1.66 µM"
CCOC(=O)c1sc(NC(=O)Nc2ccc([N+](=O)[O-])cc2)cc1C,4.91,"IC50 (HEPG2TOX_HILL_SLOPE 2.1, HEPG2TOX_R_SQUARED 0.922, PBLUC_HILL_SLOPE 2.24, PBLUC_R_SQUARED 0.786, read-out: LUCIFERASE INFECTION ASSAY - IC50): 1.84 µM"
N#C/C(=N\Nc1cccc(C(F)(F)F)c1)S(=O)(=O)c1ccsc1,> 9.18,"IC50 (HEPG2TOX_HILL_SLOPE 2.11, HEPG2TOX_R_SQUARED 0.943, PBLUC_HILL_SLOPE 4.11, PBLUC_R_SQUARED 0.604, read-out: LUCIFERASE INFECTION ASSAY - IC50): 6.42 µM"
O=c1c(Cl)c(Cl)cnn1-c1nc2ccccc2[nH]1,1.65,"IC50 (HEPG2TOX_HILL_SLOPE 2.11, HEPG2TOX_R_SQUARED 0.958, PBLUC_HILL_SLOPE 7.93, PBLUC_R_SQUARED 0.809, read-out: LUCIFERASE INFECTION ASSAY - IC50): 1.25 µM"
OCc1ccc(-c2cnc3ccc(-c4ccccc4)nn23)cc1,3.93,"IC50 (HEPG2TOX_HILL_SLOPE 2.14, HEPG2TOX_R_SQUARED 0.888, PBLUC_HILL_SLOPE 1.3, PBLUC_R_SQUARED 0.716, read-out: LUCIFERASE INFECTION ASSAY - IC50): 0.73 µM"
COc1ccc(-c2cnc3ccc(NCc4ccc(F)cc4)nn23)cc1,3.94,"IC50 (HEPG2TOX_HILL_SLOPE 2.12, HEPG2TOX_R_SQUARED 0.979, PBLUC_HILL_SLOPE 9.57, PBLUC_R_SQUARED 0.534, read-out: LUCIFERASE INFECTION ASSAY - IC50): 3.13 µM"
CC(C)NC(=O)c1c(NC(=O)c2ccc(Cl)cc2)nc2ccccn12,1.07,"IC50 (HEPG2TOX_HILL_SLOPE 2.11, HEPG2TOX_R_SQUARED 0.869, PBLUC_HILL_SLOPE 50.8, PBLUC_R_SQUARED 0.665, read-out: LUCIFERASE INFECTION ASSAY - IC50): 1.02 µM"
CC1CCC(C(C)C)C(OC(=O)C[n+]2cn(C)c3ccccc32)C1 (centres undefined),3.79,"IC50 (HEPG2TOX_HILL_SLOPE 2.1, HEPG2TOX_R_SQUARED 0.908, PBLUC_HILL_SLOPE 16.2, PBLUC_R_SQUARED 0.404, read-out: LUCIFERASE INFECTION ASSAY - IC50): 3.31 µM"
C/N=c1\scc(-c2ccc(OC(F)F)cc2)n1/N=C/c1ccccc1Br,3.26,"IC50 (HEPG2TOX_HILL_SLOPE 2.13, HEPG2TOX_R_SQUARED 0.347, PBLUC_HILL_SLOPE 0.898, PBLUC_R_SQUARED 0.747, read-out: LUCIFERASE INFECTION ASSAY - IC50): 0.283 µM"
Clc1cccc(-c2cnc3sc(NCCc4ccncc4)nn23)c1,> 9.27,"IC50 (HEPG2TOX_HILL_SLOPE 2.13, HEPG2TOX_R_SQUARED 0.945, PBLUC_HILL_SLOPE 2.85, PBLUC_R_SQUARED 0.464, read-out: LUCIFERASE INFECTION ASSAY - IC50): 5.6 µM"
Cc1cc(C(=O)OCC(=O)Nc2cccc(C#N)c2)c(C)n1-c1ccccc1,> 10,"IC50 (HEPG2TOX_HILL_SLOPE 2.12, HEPG2TOX_R_SQUARED 0.531, read-out: LUCIFERASE INFECTION ASSAY - IC50): > 10 µM"
Cc1ccc(NC(=O)COCc2nc3ccccc3s2)cc1S(=O)(=O)Nc1ccccc1F,> 10,"IC50 (HEPG2TOX_HILL_SLOPE 2.14, HEPG2TOX_R_SQUARED 0.975, PBLUC_HILL_SLOPE 2, PBLUC_R_SQUARED 0.573, read-out: LUCIFERASE INFECTION ASSAY - IC50): 4.27 µM"
CCc1cccc2c(C3=NNC(=Nc4cccc(S(=O)(=O)N(C)C)c4)SC3)c[nH]c12,3.4,"IC50 (HEPG2TOX_HILL_SLOPE 2.11, HEPG2TOX_R_SQUARED 0.991, PBLUC_HILL_SLOPE 17, PBLUC_R_SQUARED 0.266, read-out: LUCIFERASE INFECTION ASSAY - IC50): 2.99 µM"
CC1Cc2cc(C(=O)CSc3nnc(Cc4cccs4)n3C)ccc2N1S(C)(=O)=O (centres undefined),> 10,"IC50 (HEPG2TOX_HILL_SLOPE 2.13, 1.88, HEPG2TOX_R_SQUARED 0.890, 0.990, PBLUC_HILL_SLOPE 2.16, PBLUC_R_SQUARED 0.278, read-out: LUCIFERASE INFECTION ASSAY - IC50): 3.7 µM"

SMILES,IC90 [µM],also measured
C=CS(=O)(=O)Oc1cc(C)cc(C)c1,> 10,"IC50 (HEPG2TOX_HILL_SLOPE 2.11, HEPG2TOX_R_SQUARED 0.803, read-out: LUCIFERASE INFECTION ASSAY - IC50): > 10 µM"
Cc1ccc2c(c1)C(c1ccccc1C(F)(F)F)CC(=O)N2 (centres undefined),> 10.8,"IC50 (HEPG2TOX_HILL_SLOPE 2.11, HEPG2TOX_R_SQUARED 0.713, PBLUC_HILL_SLOPE 2.64, PBLUC_R_SQUARED 0.143, read-out: LUCIFERASE INFECTION ASSAY - IC50): 5.8 µM"
CCOC(=O)c1c(NC(=O)CNCc2ccccn2)sc(CC)c1C,6.49,"IC50 (HEPG2TOX_HILL_SLOPE 2.14, HEPG2TOX_R_SQUARED 0.831, PBLUC_HILL_SLOPE 2.51, PBLUC_R_SQUARED 0.552, read-out: LUCIFERASE INFECTION ASSAY - IC50): 2.7 µM"
Cc1ccc(C)c(OCC(O)CN2CCN(Cc3nc(-c4ccc(Cl)cc4)no3)CC2)c1 (centres undefined),7.62,"IC50 (HEPG2TOX_HILL_SLOPE 2.12, HEPG2TOX_R_SQUARED 0.919, PBLUC_HILL_SLOPE 1.87, PBLUC_R_SQUARED 0.881, read-out: LUCIFERASE INFECTION ASSAY - IC50): 2.36 µM"
CCc1ccc(Cl)c(CC)c1NC(=O)CCc1c(C)c2ccc(C)cc2oc1=O,> 10,"IC50 (HEPG2TOX_HILL_SLOPE 2.1, HEPG2TOX_R_SQUARED 0.669, read-out: LUCIFERASE INFECTION ASSAY - IC50): > 10 µM"
COc1ccc(C2CCCCCN2C(=O)c2csc(-c3ccsc3)n2)cc1 (centres undefined),> 10,"IC50 (HEPG2TOX_HILL_SLOPE 2.14, HEPG2TOX_R_SQUARED 0.977, PBLUC_HILL_SLOPE 2.8, PBLUC_R_SQUARED 0.0937, read-out: LUCIFERASE INFECTION ASSAY - IC50): 5.38 µM"
O=C(Nc1ncc(Cc2ccccc2Br)s1)c1ccc2nc[nH]c2c1,> 10,"IC50 (HEPG2TOX_HILL_SLOPE 2.12, HEPG2TOX_R_SQUARED 0.698, PBLUC_HILL_SLOPE 2.32, PBLUC_R_SQUARED 0.476, read-out: LUCIFERASE INFECTION ASSAY - IC50): 4.08 µM"
Fc1ccc2[nH]cc(CCNc3nc(Cl)nc4nc[nH]c34)c2c1,4.27,"IC50 (HEPG2TOX_HILL_SLOPE 2.14, HEPG2TOX_R_SQUARED 0.948, PBLUC_HILL_SLOPE 1.79, PBLUC_R_SQUARED 0.853, read-out: LUCIFERASE INFECTION ASSAY - IC50): 1.25 µM"
O=C(Nc1ccc(OC(F)(F)F)cc1)Nc1nnc(C(F)(F)F)s1,0.377,"IC50 (HEPG2TOX_HILL_SLOPE 2.11, HEPG2TOX_R_SQUARED 0.979, PBLUC_HILL_SLOPE 11.8, PBLUC_R_SQUARED 0.539, read-out: LUCIFERASE INFECTION ASSAY - IC50): 0.313 µM"
COc1cc(-c2[nH]nc3nccc(-c4ccc(C(C)C)cc4)c23)cc(OC)c1OC,> 10,"IC50 (HEPG2TOX_HILL_SLOPE 2.15, HEPG2TOX_R_SQUARED 0.552, PBLUC_HILL_SLOPE 10.1, PBLUC_R_SQUARED 0.355, read-out: LUCIFERASE INFECTION ASSAY - IC50): 8.21 µM"
CN(CC(=O)Nc1ccc(OC(F)(F)F)cc1)Cc1cc(=O)n2c([nH]c3ccccc32)c1C#N,> 10,"IC50 (HEPG2TOX_HILL_SLOPE 2.12, HEPG2TOX_R_SQUARED 0.883, PBLUC_HILL_SLOPE 1.9, PBLUC_R_SQUARED 0.564, read-out: LUCIFERASE INFECTION ASSAY - IC50): 4.93 µM"
O=S(=O)(Nc1cc(C(F)(F)F)cc(C(F)(F)F)c1)c1cc(F)c(Br)cc1F,5.67,"IC50 (HEPG2TOX_HILL_SLOPE 2.12, HEPG2TOX_R_SQUARED 0.942, PBLUC_HILL_SLOPE 3.41, PBLUC_R_SQUARED 0.612, read-out: LUCIFERASE INFECTION ASSAY - IC50): 2.98 µM"
Cc1cc[n+](CC(=O)Nc2ccc(OC(F)F)cc2)c2ccccc12,1.27,"IC50 (HEPG2TOX_HILL_SLOPE 2.14, HEPG2TOX_R_SQUARED 0.242, PBLUC_HILL_SLOPE 15.8, PBLUC_R_SQUARED 0.258, read-out: LUCIFERASE INFECTION ASSAY - IC50): 1.1 µM"
Cc1nn(-c2ccccn2)c2nc(-c3ccc4c(c3)OCO4)ccc12,> 10,"IC50 (HEPG2TOX_HILL_SLOPE 2.11, HEPG2TOX_R_SQUARED 0.932, read-out: LUCIFERASE INFECTION ASSAY - IC50): > 10 µM"
COc1ccc(NC(=O)c2nnc(CSc3nc(C)cc(-c4ccccc4)n3)s2)cc1,0.616,"IC50 (HEPG2TOX_HILL_SLOPE 2.12, HEPG2TOX_R_SQUARED 0.961, PBLUC_HILL_SLOPE 18.1, PBLUC_R_SQUARED 0.668, read-out: LUCIFERASE INFECTION ASSAY - IC50): 0.546 µM"
CC(=O)c1c(C)[nH]c(C(=O)C(C)Sc2nc3ccccc3o2)c1C (centres undefined),> 10,"IC50 (HEPG2TOX_HILL_SLOPE 2.15, HEPG2TOX_R_SQUARED 0.56, PBLUC_HILL_SLOPE 10.4, PBLUC_R_SQUARED 0.465, read-out: LUCIFERASE INFECTION ASSAY - IC50): 8.44 µM"
